Measurements as given in patent US20220370486A1, “COMBINATION TREATMENT OF SYSTEMIC FUNGAL INFECTIONS” (The Board of Trustees of the University of Illinois, priority 2019, published 2022).
Read-outs that look alike come from different tables or passages of the source.

Experiments:
[1] = system: A. fumigatus ATC204305; assay: In vitro antifungal activity (Evotec); assay type: cell-based; details: strain ATC204305
Description: (§1) In vitro antifungal activity of C2′ epiAmB was compared with that of AmB against an extensive series of Candida and Aspergillus clinical isolates (FIG. 6A) at Evotec (Oxfordshire, UK). […] C2′epiAmB was also sent to the US national Fungus Testing Laboratory at UT-San Antonio for antifungal testing against an extended panel of especially challenging 40 Aspergillus clinical isolates, including azole-resistant A. fumigatus, A. flavus, and A. terreus (FIG. 6B).

[2] = system: A. fumigatus A1163; assay: In vitro antifungal activity (Evotec); assay type: cell-based; details: strain A1163
Description: as §1

[3] = system: A. fumigatus AF293; assay: In vitro antifungal activity (Evotec); assay type: cell-based; details: strain AF293
Description: as §1

[4] = system: A. fumigatus AF91; assay: In vitro antifungal activity (Evotec); assay type: cell-based; details: strain AF91
Description: as §1

[5] = system: primary hREC; assay: Toxicity to primary hREC; assay type: cell-based, human
Description: (§2) This key discovery opened a path to the rational development of a non-toxic AmB variant. To probe its predicted role in sterol binding, the hydroxyl group was synthetically deleted at the C2′ position on the mycosamine appendage.
(§3) In each case, C2′epiAmB is non-toxic to human red blood cells, primary hREC, mice, and rats up to the highest dose tested.

[6] = system: human red blood cells; assay: Toxicity to human red blood cells; assay type: cell-based
Description: as §2, §3

[7] = Intravenous toxicity in rats; details: IV, 2, 10, and 17.5 mg/kg
[8] = system: C. albicans; assay: Murine model of invasive candidiasis; assay type: in vivo, mice
Method: Andes, D. et al., Antimicrobial agents and chemotherapy 2001, 45 (3), 922-6. In fact, the PD parameter that best correlates with outcome is Cmax-/MIC. The same was subsequently observed in a pulmonary model of invasive aspergillosis. Wiederhold, N. P. et al., Antimicrobial agents and chemotherapy 2006, 50 (2), 469-73.
A clinical isolate of C. albicans (SN250) was grown and quantified on SDA. For 24 h before infection, the organism was subcultured at 35° C. on SDA slants. A 106CFU/ml inoculum was prepared by placing six fungal colonies into 5 ml of sterile, depyrogenated normal (0.9%) saline warmed to 35° C. Six week-old ICR/Swiss specific-pathogen-free female mice were obtained from Harlan Sprague Dawley (Madison, Wis.). The mice were weighed (23-27 g) and disseminated candidiasis was induced via tail vein injection of 100 μl of inoculum. AmB and C2′ epiAmB were reconstituted in their deoxycholate form with 1.0 ml of saline5% dextrose. Each animal in the treatment group was given a single 200-μl intravenous (IV) injection of reconstituted AmB and C2′epiAmB 2 h after infection. Doses were calculated in terms of mg of compound per kg of body weight. At 24 h after infection, three animals per experimental condition were killed by CO2 asphyxiation. The kidneys from each animal were removed and homogenized. The homogenate was diluted serially tenfold with […] and plated on SDA. […]

[9] = Intravenous toxicity in mice; details: up to the highest dose tested
[10] = Isothermal titration calorimetry (ITC) sterol binding
Description: as §2
A practical 11-step synthesis of C2′epiAmB using a frontier site-selective acylation method was developed. Wilcock, B. C. et al., Nat Chem 2012, 4 (12), 996-1003; Uno, B. E. A synthesis enabled understanding of Amphotericin B leading to derivatives with improved therapeutic indices. University of Illinois at Urbana-Champaign, 2014. The sterol binding and cell killing activities was then determined.

[11] = UV-Vis and PCA based sterol sponge binding assay; details: apparent KD, sterol sponge aggregates in vitro
Description: However, an alternative method was developed for reproducible formation of homogenous AmB and C2′epiAmB sterol sponge aggregates in vitro. Using these preparations, a quantitative UV-Vis and Principle Component (PCA) based assay for determining the apparent Kis for the binding of AmB and C2′epiAmB to ergosterol and cholesterol (FIGS. 2A-2D) was developed.

C[C@@H]1[C@H](O)[C@@H](C)/C=C/C=C/C=C/C=C/C=C/C=C/C=C/[C@H](OC2O[C@H](C)[C@@H](O)[C@H](N)[C@H]2O)CC2O[C@](O)(C[C@@H](O)C[C@@H](O)[C@H](O)CC[C@@H](O)C[C@@H](O)CC(=O)O[C@H]1C)C[C@H](O)[C@H]2C(=O)O (stereo partly drawn) [C2′epiAmB, C2′epi amphotericin B]
less potent than AmB [1]: 4 fold
less potent than AmB [2]: 4 fold
less potent than AmB [3]: 4 fold
less potent than AmB [4]: > 32 times
toxicity to primary hREC [5]: non-toxic
toxicity to human red blood cells [6]: non-toxic
mortality [7]: no mortality
fungal burden ([8]; 16 mg/kg dose): outstanding reductions in fungal burden
efficacy ([8]; neutropenic ICR/Swiss mice, deoxycholate complex, single injection 1, 4, 8, or 16 mg/kg): dose-dependent efficacy
toxicity in mice [9]: non-toxic
binding of ergosterol by ITC [10]: bind ergosterol
binding of cholesterol by ITC ([10]; within the detection limits of ITC): not (detectably) cholesterol
Kd ([11]; read-out: KD,chol): > 2 µM
Kd ([11]; read-out: KD,erg): 0.15 µM
